# Values joined by “and” are separate entries in the source; they are usually repeats but may differ in a detail not shown here. Equal entries are not always repeated.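 GI50 is the concentration that inhibits growth by half. At the TGI there is no net growth.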
# Experiments:
# Test in all cases: DTP human tumour cell line panel, 384-well format
# SNB-19 CNS = test system: SNB-19 CNS
# PC-3 prostate = test system: PC-3 prostate
# OVCAR-3 ovarian = test system: OVCAR-3 ovarian
# T-47D breast = test system: T-47D breast
# HT29 colon = test system: HT29 colon
# A549 NSCLC = test system: A549 NSCLC
# SNB-75 CNS = test system: SNB-75 CNS
# HCT-116 colon = test system: HCT-116 colon
# MOLT-4 leukemia = test system: MOLT-4 leukemia
# SK-MEL-5 melanoma = test system: SK-MEL-5 melanoma
# MDA-MB-435 melanoma = test system: MDA-MB-435 melanoma
# NCI-H522 lung = test system: NCI-H522 lung
# SK-MEL-2 melanoma = test system: SK-MEL-2 melanoma
# IGROV1 ovarian = test system: IGROV1 ovarian
# 786-0 renal = test system: 786-0 renal
# TK-10 renal = test system: TK-10 renal
# MALME-3M melanoma = test system: MALME-3M melanoma
# M14 melanoma = test system: M14 melanoma
# SK-MEL-28 melanoma = test system: SK-MEL-28 melanoma
# BT-549 breast = test system: BT-549 breast
# HL-60(TB) leukemia = test system: HL-60(TB) leukemia
# OVCAR-5 ovarian = test system: OVCAR-5 ovarian
# EKVX NSCLC = test system: EKVX NSCLC
# HOP-92 NSCLC = test system: HOP-92 NSCLC
# OVCAR-4 ovarian = test system: OVCAR-4 ovarian
# OVCAR-8 ovarian = test system: OVCAR-8 ovarian
# SK-OV-3 ovarian = test system: SK-OV-3 ovarian
# U251 glioblastoma = test system: U251 glioblastoma
# UACC-62 melanoma = test system: UACC-62 melanoma
# NCI-H23 lung = test system: NCI-H23 lung
# SN12C renal = test system: SN12C renal
# SF-539 CNS = test system: SF-539 CNS
# HOP-62 NSCLC = test system: HOP-62 NSCLC
# COLO 205 colon = test system: COLO 205 colon
# SR leukemia = test system: SR leukemia
# HS 578T breast = test system: HS 578T breast
# RXF 393 renal = test system: RXF 393 renal
# SF-295 CNS = test system: SF-295 CNS
# NCI-H322M lung = test system: NCI-H322M lung
# ACHN renal = test system: ACHN renal
# SW-620 colon = test system: SW-620 colon
# CAKI-1 renal = test system: CAKI-1 renal
# SF-268 CNS = test system: SF-268 CNS
# K-562 leukemia = test system: K-562 leukemia
# MDA-MB-468 breast = test system: MDA-MB-468 breast
# MCF7 breast = test system: MCF7 breast
# MDA-MB-231 breast = test system: MDA-MB-231 breast
# UO-31 renal = test system: UO-31 renal
# NCI-H226 lung = test system: NCI-H226 lung
# A498 renal = test system: A498 renal
# NCI-H460 NSCLC = test system: NCI-H460 NSCLC
# HCT-15 colon = test system: HCT-15 colon
# KM12 colon = test system: KM12 colon
# UACC-257 melanoma = test system: UACC-257 melanoma
# DU-145 prostate = test system: DU-145 prostate
# LOX IMVI melanoma = test system: LOX IMVI melanoma
# NCI/ADR-RES ovarian = test system: NCI/ADR-RES ovarian
# RPMI-8226 leukemia = test system: RPMI-8226 leukemia
smiles,measurement,setting,value
Cc1cc(Oc2ccc3nc(COc4ccc(CC5SC(=O)NC5=O)cc4)n(C)c3c2)cc(C)c1N (stereo not drawn),GI50,SNB-19 CNS,42 µM
same,TGI,SNB-19 CNS,> 100 µM
same,GI50,PC-3 prostate,17.3 µM
same,TGI,PC-3 prostate,35.4 µM
same,GI50,OVCAR-3 ovarian,19.1 µM
same,TGI,OVCAR-3 ovarian,35.8 µM
same,GI50,T-47D breast,16.9 µM
same,TGI,T-47D breast,31.1 µM
same,GI50,HT29 colon,27.2 µM
same,TGI,HT29 colon,73.1 µM
same,GI50,A549 NSCLC,24.8 µM
same,TGI,A549 NSCLC,58.2 µM
same,GI50,SNB-75 CNS,22 µM
same,TGI,SNB-75 CNS,50 µM
same,GI50,HCT-116 colon,15.4 µM
same,TGI,HCT-116 colon,30.6 µM
same,GI50,MOLT-4 leukemia,14 µM
same,TGI,MOLT-4 leukemia,27.1 µM
same,GI50,SK-MEL-5 melanoma,18.8 µM
same,TGI,SK-MEL-5 melanoma,32.9 µM
same,GI50,MDA-MB-435 melanoma,20 µM
same,TGI,MDA-MB-435 melanoma,43.9 µM
same,GI50,NCI-H522 lung,20.4 µM
same,TGI,NCI-H522 lung,41.4 µM
same,GI50,SK-MEL-2 melanoma,20.3 µM
same,TGI,SK-MEL-2 melanoma,35.6 µM
same,GI50,IGROV1 ovarian,29.6 µM
same,TGI,IGROV1 ovarian,79.5 µM
same,GI50,786-0 renal,30.2 µM
same,TGI,786-0 renal,> 100 µM
same,GI50,TK-10 renal,27.4 µM
same,TGI,TK-10 renal,80.5 µM
same,GI50,MALME-3M melanoma,20.7 µM
same,TGI,MALME-3M melanoma,39.3 µM
same,GI50,M14 melanoma,19.9 µM
same,TGI,M14 melanoma,39.9 µM
same,GI50,SK-MEL-28 melanoma,23 µM
same,TGI,SK-MEL-28 melanoma,50.7 µM
same,GI50,BT-549 breast,16.4 µM
same,TGI,BT-549 breast,31.2 µM
same,GI50,HL-60(TB) leukemia,14 µM
same,TGI,HL-60(TB) leukemia,27.2 µM
same,GI50,OVCAR-5 ovarian,38.2 µM
same,TGI,OVCAR-5 ovarian,> 100 µM
same,GI50,EKVX NSCLC,22.6 µM
same,TGI,EKVX NSCLC,44.2 µM
same,GI50,HOP-92 NSCLC,23.9 µM
same,TGI,HOP-92 NSCLC,60.6 µM
same,GI50,OVCAR-4 ovarian,29.4 µM
same,TGI,OVCAR-4 ovarian,75.2 µM
same,GI50,OVCAR-8 ovarian,22.4 µM
same,TGI,OVCAR-8 ovarian,53.7 µM
same,GI50,SK-OV-3 ovarian,25.8 µM
same,TGI,SK-OV-3 ovarian,66.4 µM
same,GI50,U251 glioblastoma,21 µM
same,TGI,U251 glioblastoma,45.1 µM
same,GI50,UACC-62 melanoma,17.7 µM
same,TGI,UACC-62 melanoma,31.9 µM
same,GI50,NCI-H23 lung,15.6 µM
same,TGI,NCI-H23 lung,29.5 µM
same,GI50,SN12C renal,28.7 µM
same,TGI,SN12C renal,> 100 µM
same,GI50,SF-539 CNS,17.5 µM
same,TGI,SF-539 CNS,33.9 µM
same,GI50,HOP-62 NSCLC,14.6 µM
same,TGI,HOP-62 NSCLC,35 µM
same,GI50,COLO 205 colon,33.7 µM
same,TGI,COLO 205 colon,82.7 µM
same,GI50,SR leukemia,6.93 µM
same,TGI,SR leukemia,19.4 µM
same,GI50,HS 578T breast,18.6 µM
same,TGI,HS 578T breast,42.6 µM
same,GI50,RXF 393 renal,16.8 µM
same,TGI,RXF 393 renal,48.4 µM
same,GI50,SF-295 CNS,26.3 µM
same,TGI,SF-295 CNS,66.4 µM
same,GI50,NCI-H322M lung,32.8 µM
same,TGI,NCI-H322M lung,77.4 µM
same,GI50,ACHN renal,31.3 µM
same,TGI,ACHN renal,98.7 µM
same,GI50,SW-620 colon,25.6 µM
same,TGI,SW-620 colon,68.8 µM
same,GI50,CAKI-1 renal,29.5 µM
same,TGI,CAKI-1 renal,74.9 µM
same,GI50,SF-268 CNS,23.9 µM
same,TGI,SF-268 CNS,57.7 µM
same,GI50,K-562 leukemia,18.8 µM
same,TGI,K-562 leukemia,49.1 µM
same,GI50,MDA-MB-468 breast,16.7 µM
same,TGI,MDA-MB-468 breast,36.2 µM
same,GI50,MCF7 breast,5.45 µM
same,TGI,MCF7 breast,22 µM
same,GI50,MDA-MB-231 breast,30.4 µM
same,TGI,MDA-MB-231 breast,> 100 µM
same,GI50,UO-31 renal,24.1 µM
same,TGI,UO-31 renal,56.9 µM
same,GI50,NCI-H226 lung,22.6 µM
same,TGI,NCI-H226 lung,46.7 µM
same,GI50,A498 renal,25.7 µM
same,TGI,A498 renal,62.9 µM
same,GI50,NCI-H460 NSCLC,15.9 µM
same,TGI,NCI-H460 NSCLC,31.9 µM
same,GI50,HCT-15 colon,21.7 µM
same,TGI,HCT-15 colon,43 µM
same,GI50,KM12 colon,17.2 µM
same,TGI,KM12 colon,31.8 µM
same,GI50,UACC-257 melanoma,24.5 µM
same,TGI,UACC-257 melanoma,48.6 µM
same,GI50,DU-145 prostate,19 µM
same,TGI,DU-145 prostate,36 µM
CCc1cc2c(cc1N1CCC(N3CCOCC3)CC1)C(C)(C)c1[nH]c3cc(C#N)ccc3c1C2=O,TGI,SNB-75 CNS,10.6 µM and 1.07 µM
same,GI50,HCT-116 colon,5.79 µM and 1.47 µM
same,TGI,HCT-116 colon,11.5 µM and 3.08 µM
same,GI50,MOLT-4 leukemia,1.92 µM and 0.302 µM
same,TGI,MOLT-4 leukemia,7.47 µM and 1.5 µM
same,TGI,SK-MEL-5 melanoma,8.31 µM and 1.6 µM
same,GI50,NCI-H522 lung,2.92 µM and 1.15 µM
same,TGI,NCI-H522 lung,8.64 µM and 2.58 µM
same,GI50,LOX IMVI melanoma,4.67 µM and 1.17 µM
same,TGI,LOX IMVI melanoma,9.04 µM and 2.67 µM
same,GI50,TK-10 renal,11.4 µM and 1.45 µM
same,TGI,TK-10 renal,26.6 µM and 3.09 µM
same,GI50,MALME-3M melanoma,2.11 µM and 0.839 µM
same,TGI,MALME-3M melanoma,5.69 µM and 2.24 µM
same,GI50,M14 melanoma,5.43 µM and 0.726 µM
same,TGI,M14 melanoma,13.3 µM and 4.3 µM
same,GI50,SK-MEL-28 melanoma,17.5 µM and 1.8 µM
same,TGI,SK-MEL-28 melanoma,31.3 µM and 3.56 µM
same,GI50,BT-549 breast,4.75 µM and 0.496 µM
same,TGI,BT-549 breast,9 µM and 1.62 µM
same,GI50,HL-60(TB) leukemia,6.14 µM and 0.686 µM
same,TGI,HL-60(TB) leukemia,10.9 µM and 1.9 µM
same,GI50,OVCAR-5 ovarian,5.33 µM and 1.21 µM
same,GI50,EKVX NSCLC,4.67 µM and 1.37 µM
same,TGI,EKVX NSCLC,11.4 µM and 2.98 µM
same,GI50,HOP-92 NSCLC,5.13 µM and 0.841 µM
same,TGI,HOP-92 NSCLC,11.3 µM and 2.62 µM
same,GI50,OVCAR-4 ovarian,1.19 µM and 0.437 µM
same,TGI,OVCAR-4 ovarian,2.46 µM and 1.5 µM
same,GI50,OVCAR-8 ovarian,4.12 µM and 1.11 µM
same,TGI,OVCAR-8 ovarian,8.68 µM and 2.36 µM
same,GI50,SK-OV-3 ovarian,11 µM and 1.15 µM
same,GI50,NCI/ADR-RES ovarian,0.666 µM and 1.54 µM
same,TGI,NCI/ADR-RES ovarian,2.96 µM and 4.51 µM
same,GI50,NCI-H23 lung,4.88 µM and 1.47 µM
same,TGI,NCI-H23 lung,13.1 µM and 10.9 µM
same,GI50,COLO 205 colon,7.03 µM and 1.16 µM
same,TGI,SR leukemia,0.686 µM
same,TGI,HS 578T breast,8.55 µM and 1.21 µM
same,GI50,RXF 393 renal,2.45 µM and 0.547 µM
same,TGI,RXF 393 renal,7.13 µM and 1.88 µM
same,TGI,SF-295 CNS,11.3 µM and 2.17 µM
same,TGI,NCI-H322M lung,29.4 µM and 3.81 µM
same,GI50,ACHN renal,5.04 µM and 1.42 µM
same,TGI,ACHN renal,12.3 µM and 3.12 µM
same,GI50,RPMI-8226 leukemia,1.74 µM and 0.399 µM
same,TGI,RPMI-8226 leukemia,4.44 µM and 1.85 µM
same,GI50,SW-620 colon,5.07 µM and 0.686 µM
same,GI50,CAKI-1 renal,5.87 µM and 2.17 µM
same,TGI,CAKI-1 renal,14.2 µM and 5.76 µM
same,GI50,K-562 leukemia,0.633 µM
same,TGI,K-562 leukemia,5.17 µM
same,GI50,MDA-MB-468 breast,2.56 µM and 0.567 µM
same,TGI,MDA-MB-468 breast,6.54 µM and 1.71 µM
same,TGI,MCF7 breast,8.58 µM and 2.05 µM
same,GI50,MDA-MB-231 breast,1.11 µM and 1.26 µM
same,TGI,MDA-MB-231 breast,2.73 µM and 3.32 µM
same,GI50,NCI-H226 lung,3.1 µM
same,TGI,NCI-H226 lung,8.34 µM and 2.64 µM
same,TGI,HCT-15 colon,8.23 µM and 1.45 µM
same,TGI,KM12 colon,6.7 µM and 1.47 µM
same,GI50,DU-145 prostate,1.63 µM and 0.992 µM
same,TGI,DU-145 prostate,6.57 µM and 2.37 µM

# Source: PubChem BioAssay (NCI)
